Square brackets hold non-standard residues; d marks the D form. * marks the point of attachment. Palmitoyl = CCCCCCCCCCCCCCCC(=O)*; Dab = NCC[C@H](N)C(=O)O
Experiment: Storage stability: normalized peptide content by analytical HPLC of glycerin/water solutions in glass vials, with or without salt
Assay type: physicochemical
Settings: 40° C., glass vial
Protocol: (§1) Solutions of 127 mmol/kg H29C14—NH—CO-Dab-Val-Dab-OH in a Glycerin water mixture (˜2.3:1) containing salt concentrations of 382 mmol/kg have been prepared, distributed to 3 g per 10 ml glass vial and stored at 40° C. and 25° C. After various times, samples have been analyzed for their peptide content with analytical HPLC. The results have been normalized to the content at the preparation time to 100%.
as §1, with “119” for “127”, “Palm-Lys-Val-Lys-OH (SEQ ID NO:2)” for “H29C14—NH—CO-Dab-Val-Dab-OH”, “in” for “in a”, “one or three equivalents as indicated below” for “382 mmol/kg”, “40°” for “40° C. and 25°”
as §1, with “246” for “127”, “Palm-Lys-Val-Dab-OH (SEQ ID NO:5)” for “H29C14—NH—CO-Dab-Val-Dab-OH”, “in” for “in a”, “one or three equivalents as indicated below” for “382 mmol/kg”, “40°” for “40° C. and 25°”

H29C14—NH—CO-Dab-Val-Dab-OH
normalized peptide content (3 eq. CaCl2 (382 mmol/kg), t0, 127 mmol/kg peptide in Glycerin water): 100.0%
normalized peptide content (3 eq. CaCl2, 1 Month, 127 mmol/kg peptide in Glycerin water): 92.2%
normalized peptide content (3 eq. CaCl2, 2 Month, 127 mmol/kg peptide in Glycerin water): 96.9%
normalized peptide content (3 eq. CaCl2, 3 Month, 127 mmol/kg peptide in Glycerin water): 101.1%
normalized peptide content (3 eq. CaCl2, 4 Month, 127 mmol/kg peptide in Glycerin water): 95.4%
normalized peptide content (3 eq. CaCl2, 5 Month, 127 mmol/kg peptide in Glycerin water): 89.0%
normalized peptide content (3 eq. CaCl2, 6 Month, 127 mmol/kg peptide in Glycerin water): 88.9%
normalized peptide content (3 eq. LiCl (382 mmol/kg), t0, 127 mmol/kg peptide in Glycerin water): 100.0%
normalized peptide content (3 eq. LiCl, 1 Month, 127 mmol/kg peptide in Glycerin water): 93.1%
normalized peptide content (3 eq. LiCl, 2 Month, 127 mmol/kg peptide in Glycerin water): 95.3%
normalized peptide content (3 eq. LiCl, 3 Month, 127 mmol/kg peptide in Glycerin water): 99.8%
normalized peptide content (3 eq. LiCl, 4 Month, 127 mmol/kg peptide in Glycerin water): 96.4%
normalized peptide content (3 eq. LiCl, 5 Month, 127 mmol/kg peptide in Glycerin water): 90.7%
normalized peptide content (3 eq. LiCl, 6 Month, 127 mmol/kg peptide in Glycerin water): 87.6%
normalized peptide content (3 eq. MgCl2 (382 mmol/kg), t0, 127 mmol/kg peptide in Glycerin water): 100.0%
normalized peptide content (3 eq. MgCl2, 1 Month, 127 mmol/kg peptide in Glycerin water): 93.7%
normalized peptide content (3 eq. MgCl2, 2 Month, 127 mmol/kg peptide in Glycerin water): 96.5%
normalized peptide content (3 eq. MgCl2, 3 Month, 127 mmol/kg peptide in Glycerin water): 100.0%
normalized peptide content (3 eq. MgCl2, 4 Month, 127 mmol/kg peptide in Glycerin water): 94.9%
normalized peptide content (3 eq. MgCl2, 5 Month, 127 mmol/kg peptide in Glycerin water): 89.7%
normalized peptide content (3 eq. MgCl2, 6 Month, 127 mmol/kg peptide in Glycerin water): 90.7%
normalized peptide content (3 eq. ZnCl2 (382 mmol/kg), t0, 127 mmol/kg peptide in Glycerin water): 100.0%
normalized peptide content (3 eq. ZnCl2, 1 Month, 127 mmol/kg peptide in Glycerin water): 88.5%
normalized peptide content (3 eq. ZnCl2, 2 Month, 127 mmol/kg peptide in Glycerin water): 93.5%
normalized peptide content (3 eq. ZnCl2, 3 Month, 127 mmol/kg peptide in Glycerin water): 98.7%
normalized peptide content (3 eq. ZnCl2, 4 Month, 127 mmol/kg peptide in Glycerin water): 96.5%
normalized peptide content (3 eq. ZnCl2, 5 Month, 127 mmol/kg peptide in Glycerin water): 88.1%
normalized peptide content (3 eq. ZnCl2, 6 Month, 127 mmol/kg peptide in Glycerin water): 92.3%
normalized peptide content (No salt, 1 Month, 127 mmol/kg peptide in Glycerin water): 106.2%
normalized peptide content (No salt, 2 Month, 127 mmol/kg peptide in Glycerin water): 91.7%
normalized peptide content (No salt, 3 Month, 127 mmol/kg peptide in Glycerin water): 18.9%
normalized peptide content (No salt, 4 Month, 127 mmol/kg peptide in Glycerin water): 11.5%
normalized peptide content (No salt, 5 Month, 127 mmol/kg peptide in Glycerin water): 10.1%
normalized peptide content (No salt, t0, 127 mmol/kg peptide in Glycerin water (~2.3:1)): 100.0%

Palm-Lys-Val-Dab-OH (Palmitoyl-Lys-Val-[Dab]-OH; SMILES CCCCCCCCCCCCCCCC(=O)N[C@@H](CCCCN)C(=O)N[C@H](C(=O)N[C@@H](CCN)C(=O)O)C(C)C) [peptide substituted with a lipophilic moiety; Palm means palmitoyl and Dab means 2,4-diaminobutyroyl]
normalized peptide content (1 eq MgCl2, 1 Month, 246 mmol/kg peptide in Glycerin water): 71.7%
normalized peptide content (1 eq MgCl2, t0, 246 mmol/kg peptide in Glycerin water): 100.0%
normalized peptide content (3 eq LiCl, 1 Month, 246 mmol/kg peptide in Glycerin water): 75.9%
normalized peptide content (3 eq LiCl, t0, 246 mmol/kg peptide in Glycerin water): 100.0%
normalized peptide content (3 eq MgCl2, 1 Month, 246 mmol/kg peptide in Glycerin water): 70.5%
normalized peptide content (3 eq MgCl2, t0, 246 mmol/kg peptide in Glycerin water): 100.0%
normalized peptide content (3 eq NaCl, 1 Month, 246 mmol/kg peptide in Glycerin water): 75.7%
normalized peptide content (3 eq NaCl, t0, 246 mmol/kg peptide in Glycerin water): 100.0%
normalized peptide content (No salt, 1 Month, 246 mmol/kg peptide in Glycerin water): 44.2%
normalized peptide content (No salt, t0, 246 mmol/kg peptide in Glycerin water (~2.3:1)): 100.0%

Palm-Lys-Val-Lys-OH (Palmitoyl-Lys-Val-Lys-OH; SMILES CCCCCCCCCCCCCCCC(=O)N[C@@H](CCCCN)C(=O)N[C@H](C(=O)N[C@@H](CCCCN)C(=O)O)C(C)C) [peptide substituted with a lipophilic moiety; Palm means palmitoyl]
normalized peptide content (1 eq MgCl2, 1 Month, 119 mmol/kg peptide in Glycerin water): 81.4%
normalized peptide content (1 eq MgCl2, t0, 119 mmol/kg peptide in Glycerin water): 100.0%
normalized peptide content (3 eq LiCl, 1 Month, 119 mmol/kg peptide in Glycerin water): 83.6%
normalized peptide content (3 eq LiCl, t0, 119 mmol/kg peptide in Glycerin water): 100.0%
normalized peptide content (3 eq MgCl2, 1 Month, 119 mmol/kg peptide in Glycerin water): 87.4%
normalized peptide content (3 eq MgCl2, t0, 119 mmol/kg peptide in Glycerin water): 100.0%
normalized peptide content (3 eq NaCl, 1 Month, 119 mmol/kg peptide in Glycerin water): 82.0%
normalized peptide content (3 eq NaCl, t0, 119 mmol/kg peptide in Glycerin water): 100.0%
normalized peptide content (No salt, 1 Month, 119 mmol/kg peptide in Glycerin water): 76.4%
normalized peptide content (No salt, t0, 119 mmol/kg peptide in Glycerin water (~2.3:1)): 100.0%

Reference: patent publication US8541361B2, “Composition” (DSM IP Assets B.V., priority 2009, dated 2013)
